Measurements from the supplement of paper PMC10307832.

What was measured:
Assay in all cases: relative viability (nuclei count vs DMSO), 5 days (fraction); higher = more cells survive
[1] = compound: Cc1ccc(NC(=O)c2ccc(CN3CCN(C)CC3)cc2)cc1Nc1nccc(-c2cccnc2)n1 [Imatinib] + N=C(N)NC(=N)NCCc1ccccc1 [Phenformin] (partner 250 µM)
How it was run: (§1)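 Cells from lung cancer lines were seeded into 1536-well plates and, one day later, dosed by pin tool. Treatments were either a single drug or a fixed dose of an anchor drug with five library-drug doses (not always all listed) in √10 steps. After 5 days, nuclei were stained in a one-step fixation (final 0.05% Triton X-100, 1% formaldehyde, 1 ug/ml Hoechst) and counted on 4× images, and relative viability is the treated-to-vehicle nuclei ratio, as the median of duplicate plates.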

[2] = compound: Cc1ccc(NC(=O)c2ccc(CN3CCN(C)CC3)cc2)cc1Nc1nccc(-c2cccnc2)n1 [Imatinib] + C[C@@H](Oc1cc(-c2cnn(C3CCNCC3)c2)cnc1N)c1c(Cl)ccc(F)c1Cl [Crizotinib] (partner 1 µM)
How it was run: as §1

[3] = compound: Cc1ccc(NC(=O)c2ccc(CN3CCN(C)CC3)cc2)cc1Nc1nccc(-c2cccnc2)n1 [Imatinib] + Nc1nc2[nH]cc(CCc3ccc(C(=O)N[C@@H](CCC(=O)O)C(=O)O)cc3)c2c(=O)[nH]1 [Pemetrexed] (partner 0.2 µM)
How it was run: as §1

[4] = compound: Cc1ccc(NC(=O)c2ccc(CN3CCN(C)CC3)cc2)cc1Nc1nccc(-c2cccnc2)n1 [Imatinib] + C[C@]1(O)C[C@@H](c2nc(-c3ccc4ccc(-c5ccccc5)nc4c3)c3c(N)nccn32)C1 [Linsitinib] (partner 1 µM)
How it was run: as §1

Row | Cell Line | relative viability ([1]; first compound 0.02 µM) | relative viability ([1]; first compound 0.06325 µM) | relative viability ([1]; first compound 0.2 µM) | relative viability ([1]; first compound 0.6325 µM) | relative viability ([1]; first compound 2 µM) | relative viability ([2]; first compound 0.02 µM) | relative viability ([2]; first compound 0.06325 µM) | relative viability ([2]; first compound 0.2 µM) | relative viability ([2]; first compound 0.6325 µM) | relative viability ([2]; first compound 2 µM) | relative viability ([3]; first compound 0.02 µM) | relative viability ([3]; first compound 0.06325 µM) | relative viability ([3]; first compound 0.2 µM) | relative viability ([3]; first compound 0.6325 µM) | relative viability ([3]; first compound 2 µM) | relative viability ([4]; first compound 0.02 µM) | relative viability ([4]; first compound 0.06325 µM) | relative viability ([4]; first compound 0.6325 µM) | relative viability ([4]; first compound 2 µM) | relative viability ([4]; first compound 0.2 µM)
1 | NCI-H1650 | 0.499 | 0.473 | 0.329 | 0.388 | 0.385 | 1.04 | 1.06 | 1.2 | 0.904 | 1.11 | 0.414 | 0.405 | 0.362 | 0.335 | 0.416 | – | – | – | – | –
2 | NCI-H322M | 0.909 | 0.839 | 0.819 | 0.679 | 0.795 | 0.966 | 1.1 | – | 0.836 | – | 0.677 | 0.613 | 0.63 | 0.563 | 0.63 | 1.01 | 0.895 | 0.891 | 0.981 | –
3 | NCI-H2405 | 0.366 | – | 0.341 | 0.329 | 0.333 | 0.917 | 0.879 | 0.827 | 0.772 | 0.843 | 1.15 | 1.12 | 1.13 | 1.02 | – | 1.05 | – | 0.762 | 0.956 | 0.869
4 | NCI-H838 | 0.555 | 0.668 | 0.64 | 0.619 | 0.596 | 0.956 | 1.25 | – | 0.736 | 0.931 | 0.249 | 0.26 | 0.251 | 0.253 | 0.247 | 1.12 | 1.37 | 1.03 | 1.02 | 1.3
5 | NCI-H460 | 0.621 | 0.555 | 0.557 | 0.443 | 0.478 | 1.29 | 1.38 | 1.55 | 0.881 | 0.85 | 0.0572 | 0.0576 | 0.0551 | 0.0623 | 0.0654 | 1.11 | – | 0.801 | 1.02 | 0.964
6 | SW 900 | 0.57 | 0.474 | 0.821 | 0.578 | 0.499 | – | – | – | – | – | 0.465 | 0.393 | 0.418 | 0.47 | 0.425 | – | – | – | – | –
7 | HCC-78 | 0.695 | 0.674 | 0.719 | 0.591 | 0.641 | 0.334 | 0.344 | 0.36 | 0.314 | 0.322 | 0.865 | 0.955 | 0.949 | 0.916 | 0.882 | 0.444 | 0.528 | 0.524 | 0.576 | 0.563
8 | SK-LU-1 | 0.56 | 0.499 | 0.499 | 0.472 | 0.475 | 1.04 | 0.927 | 1.11 | 0.926 | 1.04 | 1.04 | 1.2 | 1.1 | 1.03 | 1.04 | 1.58 | 1.22 | – | 0.951 | 1.15
9 | HCC-15 | 0.502 | – | 0.518 | 0.451 | 0.433 | 0.683 | 0.779 | 0.9 | 0.792 | 0.817 | 0.225 | 0.234 | 0.236 | 0.218 | 0.211 | 0.82 | 0.917 | – | 0.867 | 0.926
10 | LC-2-ad | 0.626 | 0.603 | – | 0.603 | 0.557 | 0.458 | – | 0.502 | 0.434 | 0.384 | 0.265 | – | 0.298 | 0.251 | 0.27 | 0.838 | 0.875 | 0.825 | 0.84 | 0.896
11 | NCI-H1703 | – | – | – | – | – | 0.773 | 0.88 | 0.437 | 0.304 | 0.186 | – | – | – | – | – | 0.629 | 0.204 | 0.418 | 0.138 | 0.449
12 | Calu-6 | – | – | – | – | – | 1.09 | 1.17 | 0.985 | 0.818 | 0.652 | – | – | – | – | – | 0.993 | 0.997 | 0.967 | 1.04 | 1.07
13 | NCI-H727 | 0.653 | – | 0.876 | 0.522 | 0.522 | – | 0.853 | 0.944 | 0.845 | 0.792 | – | – | – | – | – | 0.301 | 0.249 | 0.299 | 0.347 | 0.277
14 | NCI-H1299 | – | – | – | – | – | – | – | – | – | – | – | – | – | – | – | 1.14 | 1.08 | 0.983 | – | 1.04
15 | EBC-1 | – | – | – | – | – | 0.185 | 0.204 | 0.19 | 0.196 | 0.208 | – | – | – | – | – | 1.18 | 0.974 | 1.04 | 0.818 | 1.07
16 | ChaGo-K-1 | 0.425 | 0.485 | 0.505 | 0.426 | 0.432 | 1.12 | 1.35 | 1.31 | 0.976 | 1.05 | 0.263 | – | 0.255 | 0.268 | 0.251 | – | – | – | – | –
17 | NCI-H1734 | 0.382 | 0.389 | 0.431 | 0.368 | 0.357 | 0.674 | – | 0.891 | 0.642 | – | 0.402 | – | 0.425 | 0.377 | 0.388 | – | – | – | – | –
18 | NCI-H2170 | 0.448 | 0.414 | 0.406 | 0.361 | 0.301 | 1.5 | 1.49 | 1.52 | 1.3 | 1.22 | 0.343 | 0.277 | 0.267 | 0.256 | 0.274 | – | – | – | – | –
19 | ABC-1 | 0.252 | – | 0.224 | 0.305 | 0.187 | 1.34 | – | 1.43 | 1.15 | 1.07 | – | – | – | – | – | 0.727 | – | 0.849 | 0.779 | 0.778
